Test results published in patent publication US20090297571A1, “ANTIFUNGAL WALLBOARDS AND BUILDING MATERIALS AND METHODS FOR THE PRODUCTION THEREOF” (SYNGENTA CROP PROTECTION, INC., priority 2004, published 2009).
In brackets after ≈: the same amount, converted by molar mass. Several values for one entry are separate records, joined by “and”; a condition that tells them apart may be missing. Identical values can stand only once. Like-named read-outs stand apart in the source and are kept apart here.

Tests used:
Format in all cases: cell-based
Stachybotrys chartarum [1] = assay: Liquid culture assay on 24 well plates, solo ai (EC95/MIC); conditions: for EC95: 24° C., 3-6 days; for MIC: Stachybotrys chartarum, read-out: MIC Minimal inhibition concentration
Description: (§1) The following compounds and formulations were used: […]
(§2) Alternaria tenuissima, Penicillium citrinum, Stachybotrys chartarum, Aspergillus niger and Aureobasidium pullulans were separately cultivated on PDA media to […] sporulation. Spore suspensions were produced for each fungi.
(§3) For solo (i.e. single) ai testing the formulated fungicide (100 ul) was filled into the 24 well plates (8 different rates: 100-0.05 mg aiA final volume as described above) and 100 ul distilled water was added. Afterwards 800 ul of 0.3% PDA media was added to the plate. The spore suspension of the specific fungi was added to this media in advance containing approx. 100.000 spores/ml. The 24 well plates were sealed and incubated at 24° C.
(§4) Dependent on the growth properties of each organisms, the evaluation was done after 3 to 6 days, when the surface of the check well was covered with mycelium. The evaluation was performed by assessing the growth of the fungi related to the check growth. The results are expressed as % activity relative to the check (values of 0-100% growth). Afterwards the results were converted in % growth inhibition. EC95 values and also MIC (minimal inhibition concentration) values were derived for each compound.
(§5) For each solo compound a graph was drawn of percentage inhibition against the concentration of the fungicide. […] Also the concentration that gave the minimum inhibition concentration was derived as the MIC value.

Penicillium citrinum = assay: as above; conditions: for EC95: 24° C., 3-6 days; for MIC: Penicillium citrinum, read-out: MIC Minimal inhibition concentration
Description: as §1, §2, §3, §4, §5

Aureobasidium pullulans [2] = assay: as above; conditions: for EC95: 24° C., 3-6 days; for MIC: Aureobasidium pullulans, read-out: MIC Minimal inhibition concentration
Description: as §1, §2, §3, §4, §5

Aspergillus niger [3] = assay: as above; conditions: for EC95: 24° C., 3-6 days; for MIC: Aspergillus niger, read-out: MIC Minimal inhibition concentration
Description: as §1, §2, §3, §4, §5

Alternaria tenuissima [4] = assay: as above; conditions: for EC95: 24° C., 3-6 days; for MIC: Alternaria tenuissima, read-out: MIC Minimal inhibition concentration
Description: as §1, §2, §3, §4, §5

Aureobasidium pullulans [5] = assay: Synergy testing of 2-way mixtures, 24 well plates; conditions: A. pullulans
Description: (§6) For synergism testing of the 2-way mixtures 100 ul of each fungicide were filled into the 24 well plates (8 different rates) and 800 ul of 0.3% PDA media containing the spore suspension was added (see above). Different ratios of the 2 fungicide rates were tested at the same time.
as §2
(§7) For the mixtures of different fungicides the synergism was calculated based on the Colby equation, which is described below: […]
(§8) A synergistic effect exists whenever the action of the active ingredient combination of the compound of formula I and one or more compounds of formula II is greater than the sum of the actions of the active ingredients applied individually.
(§9) The fungicidal action to be expected, We, for a given combination of two fungicides can be calculated as follows (see COLBY, S. R. “Calculating synergistic and antagonistic response of herbicide combinations”. Weeds 15, pages 20-22; 1967):
(§10) If the activity actually observed is greater than the expected value We, there is a synergistic effect.
(§11) All rates below are expressed as mg ai/l (i.e. ppm).

Aspergillus niger [6] = assay: Synergy testing of 2-way mixtures, 24 well plates; conditions: A. niger
Description: as §6, §2, §7, §8, §9, §10, §11

Alternaria tenuissima [7] = assay: Synergy testing of 2-way mixtures, 24 well plates; conditions: A. tenuissima
Description: as §6, §2, §7, §8, §9, §10, §11

Stachybotrys chartarum [8] = assay: Synergy testing of 2-way mixtures, 24 well plates; conditions: S. chartarum
Description: as §6, §2, §7, §8, §9, §10, §11

Alternaria alternata = assay: Agar growth medium petri dish test, visual assessment of fungus-free surface
Description: (§12) A fungal growth medium was made comprising yeast extract (4 g) agar (8 g), magnesium sulphate (0.2 g), sodium nitrate (2.4 g), potassium chloride (0.2 g), potassium dihydrogen orthophosphate (0.6 g), glycerol (8 ml), distilled water (390 ml). Fungicides as set out in Tables 1 to 4 were added at levels of 5000, 100, 10, 1, 0.1 and 0.01 mg fungicide/litre of growth medium to give […] different growth medium compositions for each fungicide. These growth media containing the fungicide were each put into petri dishes.
(§13) Aspergillus versicolor, Ulocladium chartarum, Mucor indicus and Alternaria alternata were separately propagated on Luria agar to suppress sporulation and mycelial plugs were transferred upside down onto the petri dishes containing the growth medium.
(§14) A visual assessment was made of the surface of the petri dishes. The result recorded was the percentage of the surface that remained free of fungus. This was recorded as percentage activity
(§15) For each fungicide, a graph was drawn of percentage activity against concentration of to fungicide in the growth medium. From this graph, the concentrations of fungicide required to achieve 50%, 80% and 95% activity was estimated. These figures are given in the results tables.

Mucor indicus = assay: as above; conditions: after 3 days at 25° C., 'no effect' = less than 50% activity at highest dose rate of 100 mg/l
Description: as §12, §13, §14, §15

Aspergillus versicolor = assay: as above; conditions: after 19 days at 25° C.
Description: as §12, §13, §14, §15

Ulocladium chartarum = assay: as above; conditions: after 13 days at 20° C., 'no effect' = less than 50% activity at highest dose rate of 100 mg/l
Description: as §12, §13, §14, §15

[9] = S. chartarum, rates 0-100 mg ai/l, mean values of n = 5
[10] = P. citrinum, rates 0-100 mg ai/l, mean values of n = 5
[11] = A. pullulans, rates 0-100 mg ai/l, mean values of n = 5
[12] = A. niger, rates 0-100 mg ai/l, mean values of n = 5
[13] = A. tenuissima, rates 0-100 mg ai/l, mean values of n = 5
[14] = CCZ + FDL table, rate (PPZ) 1.6 mg ai/l
[15] = CCZ + FDL table, rate (PPZ) 3.1 mg ai/l

## CC(C1CC1)C(O)(Cn1cncn1)c1ccc(Cl)cc1 (stereo not shown) [Cyproconazole]
Stachybotrys chartarum [1]; S. chartarum
  EC95: >100 mg ai/l
Stachybotrys chartarum [1]; [9]
  MIC: > 100 mg/L
Penicillium citrinum; P. citrinum
  EC95: 50 mg ai/l
Penicillium citrinum; [10]
  MIC: 50 mg/L (≈ 171 µM)
Aureobasidium pullulans [2]; A. pullulans
  EC95: 6.5 mg ai/l
Aureobasidium pullulans [2]; [11]
  MIC: 12.5 mg/L (≈ 42.8 µM)
Aspergillus niger [3]; A. niger
  EC95: 10.1 mg ai/l
Aspergillus niger [3]; [12]
  MIC: 12.5 mg/L (≈ 42.8 µM)
Alternaria tenuissima [4]; A. tenuissima
  EC95: 10.2 mg ai/l
Alternaria tenuissima [4]; [13]
  MIC: 12.5 mg/L (≈ 42.8 µM)
Aureobasidium pullulans [5]; [14]
  inh % (PPZ alone): 70%
Aspergillus niger [6]; [14]
  inh % (PPZ alone): 0%
Aspergillus niger [6]; [15]
  inh % (PPZ alone): 0%
Alternaria tenuissima [7]; CCZ + FDL table, rate (PPZ) 0.8 mg ai/l
  inh % (PPZ alone): 10%
Alternaria tenuissima [7]; [15]
  inh % (PPZ alone): 30%

## CC1COC(Cn2cncn2)(c2ccc(Oc3ccc(Cl)cc3)cc2Cl)O1 (stereo not shown) [Difenoconazole]
Stachybotrys chartarum [1]; S. chartarum
  EC95: 2.7 mg ai/l
Stachybotrys chartarum [1]; [9]
  MIC: 3.1 mg/L (≈ 7.63 µM)
Penicillium citrinum; P. citrinum
  EC95: 1.7 mg ai/l
Penicillium citrinum; [10]
  MIC: 1.6 mg/L (≈ 3.94 µM)
Aureobasidium pullulans [2]; A. pullulans
  EC95: 8 mg ai/l
Aureobasidium pullulans [2]; [11]
  MIC: 12.5 mg/L (≈ 30.8 µM)
Aspergillus niger [3]; A. niger
  EC95: 1.4 mg ai/l
Aspergillus niger [3]; [12]
  MIC: 1.6 mg/L (≈ 3.94 µM)
Alternaria tenuissima [4]; A. tenuissima
  EC95: 0.7 mg ai/l
Alternaria tenuissima [4]; [13]
  MIC: 0.8 mg/L (≈ 1.97 µM)
Stachybotrys chartarum [8]; DFZ 0.8 mg ai/l
  inh % (DFZ alone): 50%
Stachybotrys chartarum [8]; DFZ 1.6 mg ai/l
  inh % (DFZ alone): 90%
Aureobasidium pullulans [5]; DFZ 0.2 mg ai/l
  inh % (DFZ alone): 70%
Aureobasidium pullulans [5]; DFZ 0.8 mg ai/l
  inh % (DFZ alone): 90%
Aureobasidium pullulans [5]; DFZ 1.6 mg ai/l
  inh % (DFZ alone): 90%
Aureobasidium pullulans [5]; DFZ 3.1 mg ai/l
  inh % (DFZ alone): 70%
Aspergillus niger [6]; DFZ 0.05 mg ai/l
  inh % (DFZ alone): 0%
Aspergillus niger [6]; DFZ 0.2 mg ai/l
  inh % (DFZ alone): 0%
Aspergillus niger [6]; DFZ 0.8 mg ai/l
  inh % (DFZ alone): 10%

## N#Cc1c[nH]cc1-c1cccc2c1OC(F)(F)O2 [Fludioxonil]
Stachybotrys chartarum [1]; S. chartarum
  EC95: 0.18 mg ai/l
Stachybotrys chartarum [1]
  MIC: 0.2 mg/L (≈ 0.806 µM)
Penicillium citrinum; P. citrinum
  EC95: 0.18 mg ai/l
Penicillium citrinum
  MIC: 0.2 mg/L (≈ 0.806 µM)
Aureobasidium pullulans [2]; A. pullulans
  EC95: >100 mg ai/l
Aureobasidium pullulans [2]
  MIC: > 100 mg/L
Aspergillus niger [3]; A. niger
  EC95: >100 mg ai/l
Aspergillus niger [3]
  MIC: > 100 mg/L
Alternaria tenuissima [4]; A. tenuissima
  EC95: 1.3 mg ai/l
Alternaria tenuissima [4]
  MIC: 1.6 mg/L (≈ 6.45 µM)
Stachybotrys chartarum [8]; FDL 0.05 mg ai/l
  inh % (FDL alone): 10%
Aureobasidium pullulans [5]; FDL 0.8 mg ai/l
  inh % (FDL alone): 10%
Aureobasidium pullulans [5]; FDL 1.6 mg ai/l, listed as FDL
  inh % (FDL alone): 0% and 10%
Aureobasidium pullulans [5]; FDL 3.1 mg ai/l, listed as FDL
  inh % (FDL alone): 0% and 10%
Aureobasidium pullulans [5]; FDL 12.5 mg ai/l, listed as FDL
  inh % (FDL alone): 0% and 10%
Aureobasidium pullulans [5]; FDL 50 mg ai/l, listed as FDL
  inh % (FDL alone): 0% and 10%
Aureobasidium pullulans [5]; FDL 100 mg ai/l, listed as FDL
  inh % (FDL alone): 0% and 10%
Aspergillus niger [6]; FDL 0.2 mg ai/l
  inh % (FDL alone): 30%
Aspergillus niger [6]; FDL 0.8 mg ai/l
  inh % (FDL alone): 30%
Aspergillus niger [6]; FDL 1.6 mg ai/l
  inh % (FDL alone): 30%
Aspergillus niger [6]; FDL 3.1 mg ai/l
  inh % (FDL alone): 30%
Aspergillus niger [6]; FDL 12.5 mg ai/l
  inh % (FDL alone): 30%
Aspergillus niger [6]; FDL 50 mg ai/l
  inh % (FDL alone): 30%
Aspergillus niger [6]; FDL 100 mg ai/l
  inh % (FDL alone): 30%
Alternaria tenuissima [7]; FDL 0.2 mg ai/l, listed as FDL
  inh % (FDL alone): 90% and 70%
Alternaria tenuissima [7]; FDL 0.8 mg ai/l
  inh % (FDL alone): 90%
Alternaria alternata
  Concentration required for 95% Activity: 0.95 mg/L
Mucor indicus
  Concentration required for 80% Activity: 2.8 mg/L
Aspergillus versicolor
  Concentration required for 80% Activity: 0.81 mg/L
Ulocladium chartarum
  Concentration required for 80% Activity: 0.28 mg/L

## CCCC1COC(Cn2cncn2)(c2ccc(Cl)cc2Cl)O1 (stereo not shown) [Propiconazole]
Stachybotrys chartarum [1]; S. chartarum
  EC95: >100 mg ai/l
Stachybotrys chartarum [1]; [9]
  MIC: > 100 mg/L
Penicillium citrinum; P. citrinum
  EC95: 1.5 mg ai/l
Penicillium citrinum; [10]
  MIC: 1.6 mg/L (≈ 4.68 µM)
Aureobasidium pullulans [2]; A. pullulans
  EC95: 36 mg ai/l
Aureobasidium pullulans [2]; [11]
  MIC: 50 mg/L (≈ 146 µM)
Aspergillus niger [3]; A. niger
  EC95: 3 mg ai/l
Aspergillus niger [3]; [12]
  MIC: 3.1 mg/L (≈ 9.06 µM)
Alternaria tenuissima [4]; A. tenuissima
  EC95: 10.1 mg ai/l
Alternaria tenuissima [4]; [13]
  MIC: 12.5 mg/L (≈ 36.5 µM)
Aureobasidium pullulans [5]; PPZ 3.1 mg ai/l
  inh % (PPZ alone): 70%
Aureobasidium pullulans [5]; PPZ 12.5 mg ai/l
  inh % (PPZ alone): 70%
Aspergillus niger [6]; PPZ 0.05 mg ai/l
  inh % (PPZ alone): 0%
Aspergillus niger [6]; PPZ 0.2 mg ai/l
  inh % (PPZ alone): 0%
Aspergillus niger [6]; PPZ 0.8 mg ai/l
  inh % (PPZ alone): 0%
Aspergillus niger [6]; PPZ 1.6 mg ai/l
  inh % (PPZ alone): 30%
Alternaria tenuissima [7]; PPZ 0.8 mg ai/l
  inh % (PPZ alone): 0%
Alternaria tenuissima [7]; PPZ 1.6 mg ai/l
  inh % (PPZ alone): 10%
Alternaria tenuissima [7]; PPZ 3.1 mg ai/l
  inh % (PPZ alone): 30%
Alternaria alternata
  Concentration required for 95% Activity: 16 mg/L
Mucor indicus
  Concentration required for 80% Activity: 61 mg/L
Aspergillus versicolor
  Concentration required for 80% Activity: 9.2 mg/L
Ulocladium chartarum
  Concentration required for 80% Activity: 4.2 mg/L

## c1ccc2[nH]c(-c3cscn3)nc2c1 [Thiabendazole]
Alternaria alternata
  Concentration required for 95% Activity: >5000 mg/L
Mucor indicus
  Concentration required for 80% Activity: No effect
Aspergillus versicolor
  Concentration required for 80% Activity: 6.9 mg/L
Ulocladium chartarum
  Concentration required for 80% Activity: No effect
